Assay results published in patent publication US20090263354A1, “Compositions and siRNAs for inhibiting C/EBPbeta” (Yeda Research and Development Co., Ltd., priority 2006, published 2009).

B1: FasL: Fas ligand, cytotoxic cytokine (protein, UniProt P48023 130-281, looked up)
Tumor necrosis factor ligand …: QIGHPSPPPEKKELRKVAHLTGKSNSRSMPLEWEDTYGIVLLSGVKYKKGGLVINETGLYFVYSKVYFRGQSCNNLPLSHKVYMRNSKYPQDLVMMEGKMMSYCTTGQMWARSSYLGAVFNLTSADHLYVNVSELSLVNFEESQTFFGLYKL

Experiments:
[1] = system: p53; assay: Induction of cellular p53 by cell death inducers, immunoblotting; type: cell-based, human; details: WISH cells; 24 h (TNFα plus IFN-γ 48 h)
Method: The following experiment was carried out in order to confirm that the protective effect of C/EBPβ from cell death inducers is independent of the transfection process. Thus, B16 mouse melanoma cells, stably transfected with an inducible C/EBPβ expression vector (Clone F-10.9) were obtained from M. Revel and J. Chebath, Weizmann Institute of Science, Israel. Induction of C/EBPβ expression was triggered by addition of the antibiotic doxycycline (1 μg/ml, 24 h, Sigma) to the culture medium and was evaluated by both RT-PCR and immunoblotting. RT-PCR was performed as follows: F-10.9 cells (10^6) were harvested and total RNA was extracted by using the Rneasy® kit- from QIAGEN. cDNA was prepared by using random hexamers (Invitrogen) and M-MLV Reverse Transcriptase (Promega) according to the manufacturer's instructions. PCR was performed with the following primers: mouse C/EBPβ, 5′-[…] and 5′-[…]. Amplifications were done by initial denaturation (95° C., 4 min), 27 cycles of denaturation (95° C., 80 s), annealing (57° C., 60 s) and extension (72° C., 80 s), and final extension (72° C., 5 min). The resulting PCR products were resolved by agarose (1%) gel electrophoresis. […] For immunoblotting, cells were washed three times with ice-cold PBS and immediately frozen in liquid nitrogen. Cell pellets were re-suspended in four packed cell volumes of cytoplasmic buffer (10 mM Hepes, pH 7.9, 10 mM NaCl, 0.2 mM EDTA, 5% glycerol, 1.5 mM MgCl2, 1 mM DTT, 0.5 mM PMSF, 50 mM NaF, 0.1 mM Na3VO4, 2 mM EGTA, 10 mM Na2MoO4, 2 μg/ml each of leupeptin, pepstatin, and aprotinin). The suspension was freeze/thawn twice, incubated on ice for 20 min and then centrifuged (3,000×g, 10 min, 4° C.). The supernatant containing the proteins was collected and protein concentration was determined by a BCA Protein assay kit (Pierce), using BSA as a standard. Protein extracts (10 μg) were boiled in SDS/PAGE sample buffer containing 25 mM DTT and the supernatant was resolved by SDS/PAGE (10% acrylamide). The gel was then blotted onto a nitrocellulose membrane and proteins were detected with the indicated antibodies. Immune complexes were identified with a Super Signal detection kit (Pierce.).
It was recently reported that C/EBPβ binds to p53 and inhibits its activity, part of which could be induction of apoptosis. We carried out several experiments to find out if the protective effect of C/EBPβ over-expression against apoptosis induced by cell death inducers involves inhibition of p53. Initially, we determined which of the cell death inducers used for induction of apoptosis elevates the level of cellular p53. For this purpose, WISH cells were treated with; etoposide (50 μM for 24 h); MG262 (0.1 μM, for 24 h); TNFα (100 ng/ml) plus IFN-γ (1000 IU/ml) for 48 h; doxorubicin (1.8 μM, for 24 h); vincristine (0.1 μg/ml, for 24 h); FasL (60 ng/ml, 24 h); tunicamycin (1 μg/ml, for 24 h) or ALLN (26 μM, for 24 h), and extracts of these cells were subjected to immunoblotting with anti p53 (mab dd1+1801, 1:40 from M. Oren, WIS) as described in Example 6.

[2] = system: WISH cells; assay: Protection of WISH cells from cell death by pre-incubation with IGF-1 or IL-6; type: cell-based, human
Method: WISH cells were pre-incubated with IGF-1 (200 ng/ml) for the indicated times. Doxorubicin (2 μM, for 16 h) was then added. […] The same results were obtained when apoptosis was induced by MG262, TNF-α plus IFN-γ, and tunicamycin (data not shown).
WISH Cells (30,000 cells/well) were pre incubated with 6.25, 12.5, 25, 50, 100, 200, 300, 400, 500, or 1000 IU/ml of IL-6 for 6 h and then 26 μM ALLN was added for 48 h.

| Molecule | induction of p53 (immunoblotting with anti p53) [1] | other results |
| --- | --- | --- |
| CC(C)C[C@H](NC(=O)[C@H](CC(C)C)NC(=O)[C@H](CC(C)C)NC(=O)OCc1ccccc1)B(O)O [MG262] | extensive induction of p53 |  |
| COc1cccc2c1C(=O)c1c(O)c3c(c(O)c1C2=O)C[C@@](O)(C(=O)CO)C[C@@H]3O[C@H]1C[C@H](N)[C@H](O)[C@H](C)O1 [doxorubicin] | extensive induction of p53 |  |
| COc1cc([C@@H]2c3cc4c(cc3[C@@H](O[C@@H]3O[C@@H]5CO[C@@H](C)O[C@H]5[C@H](O)[C@H]3O)[C@H]3COC(=O)[C@H]23)OCO4)cc(OC)c1O [etoposide] | did not induce p53 |  |
| CC[C@]1(O)C[C@H]2CN(CCc3c([nH]c4ccccc34)[C@@](C(=O)OC)(c3cc4c(cc3OC)N(C=O)[C@H]3[C@@](O)(C(=O)OC)[C@H](OC(C)=O)[C@]5(CC)C=CCN6CC[C@]43[C@@H]65)C2)C1 [vincristine] | did not induce p53 |  |
| IGF-1: growth factor IGF-1 added to the culture medium |  | protection of WISH cells from doxorubicin ([2]; IGF-1 200 ng/ml pre-incubation, doxorubicin 2 μM, 16 h): did not protect; protection of WISH cells from other apoptosis inducers ([2]; IGF-1, apoptosis induced by MG262, TNF-α plus IFN-γ, and tunicamycin, data not shown): same results |
| IL-6: cytokine IL-6 |  | protection from apoptosis induced by ALLN ([2]; IL-6 6.25-1000 IU/ml, 6 h before ALLN 26 μM, 48 h): did not protect |
| tunicamycin | did not induce p53 |  |
| B1 | did not induce p53 |  |
